Consider eleven compounds from ChEMBL document CHEMBL5465560, “Selectivity Literature for EUbOPEN Chemogenomic Library” (2024).

For experiment [1], the target named is T1, MAP kinase-activated protein kinase 5 (Homo sapiens) (UniProt Q8IW41).
T1 sequence (whole entry): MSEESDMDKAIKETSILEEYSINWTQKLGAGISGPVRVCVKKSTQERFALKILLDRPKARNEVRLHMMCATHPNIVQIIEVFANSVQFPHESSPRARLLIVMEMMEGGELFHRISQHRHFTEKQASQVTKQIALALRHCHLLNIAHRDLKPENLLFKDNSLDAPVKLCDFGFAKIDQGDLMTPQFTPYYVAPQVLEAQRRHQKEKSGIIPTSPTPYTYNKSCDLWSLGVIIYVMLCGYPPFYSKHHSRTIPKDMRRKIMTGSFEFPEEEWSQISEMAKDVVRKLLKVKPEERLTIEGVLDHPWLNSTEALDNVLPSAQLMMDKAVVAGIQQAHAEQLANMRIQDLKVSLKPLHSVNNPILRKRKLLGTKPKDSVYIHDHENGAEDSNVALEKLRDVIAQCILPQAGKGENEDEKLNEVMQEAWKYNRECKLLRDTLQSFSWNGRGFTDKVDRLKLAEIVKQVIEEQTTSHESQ
Nature of the experiment: Selectivity interaction (Kinase panel (Z-LYTE Assay)) EUB0001632a MAPKAPK5. The following applies: at 10 µM.

The target in experiment [2] is Serine/threonine-protein kinase 38 (Homo sapiens) (UniProt Q15208). Nature of the experiment: Selectivity interaction (Kinase panel (KiNativ target engagement assay in Jurkat cells)) EUB0001635a STK38. To be noted: Selectivity number of off-targets 0.0, Selectivity number of targets 233.0, Source Knowledge https://www.sciencedirect.com/science/article/pii/S2451945619300674?via%3Dihub, at 1 µM. The format is cell-based.

Experiment [3] deals with Casein kinase I isoform alpha (Homo sapiens, UniProt P48729). To be noted: at 10 µM.
The target of experiment [4] is Mitogen-activated protein kinase 10 (Homo sapiens, UniProt P53779). As to the kind of experiment: Selectivity interaction (Kinase panel (DSF assay)) EUB0001558a MAPK10.
Another experiment concerns the target Mu-type opioid receptor (Homo sapiens, UniProt P35372). As to the kind of experiment: Selectivity interaction (GPCR panel (PDSP screen)) EUB0000311b OPRM1. To be noted: at 10 µM.
The target of experiment [5] is Cyclin-dependent kinase 7 (Homo sapiens, UniProt P50613). Nature of the experiment: Selectivity interaction (KinomeScan (DiscoverX)) EUB0001619a CDK7. To be noted: at 1 µM.
Experiment [6] addresses Rho-associated protein kinase 2 (Homo sapiens, UniProt O75116). Nature of the experiment: Selectivity interaction (ActivX KiNativ screen (kinase selectivity in THP-1 cell lysates)) EUB0000639a ROCK2. The class given is subcellular. To be noted: lysate.
Experiment [7] deals with Fibroblast growth factor receptor 2 (Homo sapiens) (UniProt P21802). As to the kind of experiment: Selectivity interaction (Kinase screening (Nanosyn)) EUB0000604a FGFR2.
In experiment [8] the target is T2, Ephrin type-B receptor 3 (Homo sapiens) (UniProt P54753).
T2 sequence (whole entry): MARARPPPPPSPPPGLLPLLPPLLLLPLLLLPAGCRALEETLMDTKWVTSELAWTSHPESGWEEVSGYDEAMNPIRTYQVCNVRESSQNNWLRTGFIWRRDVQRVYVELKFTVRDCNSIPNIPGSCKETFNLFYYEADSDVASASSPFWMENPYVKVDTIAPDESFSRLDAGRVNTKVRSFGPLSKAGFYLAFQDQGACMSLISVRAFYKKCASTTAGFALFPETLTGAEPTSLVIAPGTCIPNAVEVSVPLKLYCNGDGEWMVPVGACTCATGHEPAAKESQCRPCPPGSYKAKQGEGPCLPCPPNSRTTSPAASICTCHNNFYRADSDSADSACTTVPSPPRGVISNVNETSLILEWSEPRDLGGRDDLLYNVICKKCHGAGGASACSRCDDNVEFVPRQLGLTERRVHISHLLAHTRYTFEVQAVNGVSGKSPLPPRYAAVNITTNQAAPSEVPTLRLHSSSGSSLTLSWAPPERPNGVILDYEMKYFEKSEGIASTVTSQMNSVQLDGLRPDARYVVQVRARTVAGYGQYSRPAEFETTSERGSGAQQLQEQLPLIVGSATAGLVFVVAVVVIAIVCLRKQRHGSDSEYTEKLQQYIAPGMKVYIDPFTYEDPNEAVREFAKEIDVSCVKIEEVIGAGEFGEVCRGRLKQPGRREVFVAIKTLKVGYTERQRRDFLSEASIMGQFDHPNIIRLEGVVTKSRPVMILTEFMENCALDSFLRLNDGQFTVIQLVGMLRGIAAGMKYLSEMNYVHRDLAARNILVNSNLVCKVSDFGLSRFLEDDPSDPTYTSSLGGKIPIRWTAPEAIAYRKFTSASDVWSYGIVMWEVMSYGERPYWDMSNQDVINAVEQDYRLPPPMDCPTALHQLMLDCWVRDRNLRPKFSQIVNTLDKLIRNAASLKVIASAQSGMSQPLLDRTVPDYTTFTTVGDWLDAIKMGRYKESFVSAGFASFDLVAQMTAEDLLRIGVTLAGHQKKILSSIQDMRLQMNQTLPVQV
Nature of the experiment: Selectivity interaction (KinomeScan (DiscoverX)) EUB0001049a EPHB3. The following applies: at 1 µM.

For experiment [9], the target named is Tyrosine-protein kinase Fyn (Homo sapiens) (UniProt P06241). As to the kind of experiment: Selectivity interaction (KinomeScan (DiscoverX)) EUB0001049a FYN. The following applies: at 1 µM.
Experiment [10] deals with Mitogen-activated protein kinase 9 (Homo sapiens, UniProt P45984). Nature of the experiment: Selectivity interaction (KinomeScan (DiscoverX)) EUB0000045b MAPK9.
The target of experiment [11] is Mitogen-activated protein kinase 3 (Homo sapiens, UniProt P27361). As to the kind of experiment: Selectivity interaction (Upstate Kinase Profiler service (Millipore)) EUB0000056c MAPK3. The following applies: at 1 µM.
Sequence of Mitogen-activated protein kinase 3 (P27361 whole entry): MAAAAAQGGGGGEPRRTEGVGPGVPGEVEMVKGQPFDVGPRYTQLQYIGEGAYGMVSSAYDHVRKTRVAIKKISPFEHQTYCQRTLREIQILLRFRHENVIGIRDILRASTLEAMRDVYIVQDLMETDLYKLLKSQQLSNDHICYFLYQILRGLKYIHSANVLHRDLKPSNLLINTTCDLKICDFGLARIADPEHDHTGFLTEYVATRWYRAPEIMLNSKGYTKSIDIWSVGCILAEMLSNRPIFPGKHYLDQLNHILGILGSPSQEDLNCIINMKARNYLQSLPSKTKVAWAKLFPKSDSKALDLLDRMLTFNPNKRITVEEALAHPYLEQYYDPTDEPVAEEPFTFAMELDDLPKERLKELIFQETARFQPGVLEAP

Sequence of Rho-associated protein kinase 2 (O75116 whole entry, looked up): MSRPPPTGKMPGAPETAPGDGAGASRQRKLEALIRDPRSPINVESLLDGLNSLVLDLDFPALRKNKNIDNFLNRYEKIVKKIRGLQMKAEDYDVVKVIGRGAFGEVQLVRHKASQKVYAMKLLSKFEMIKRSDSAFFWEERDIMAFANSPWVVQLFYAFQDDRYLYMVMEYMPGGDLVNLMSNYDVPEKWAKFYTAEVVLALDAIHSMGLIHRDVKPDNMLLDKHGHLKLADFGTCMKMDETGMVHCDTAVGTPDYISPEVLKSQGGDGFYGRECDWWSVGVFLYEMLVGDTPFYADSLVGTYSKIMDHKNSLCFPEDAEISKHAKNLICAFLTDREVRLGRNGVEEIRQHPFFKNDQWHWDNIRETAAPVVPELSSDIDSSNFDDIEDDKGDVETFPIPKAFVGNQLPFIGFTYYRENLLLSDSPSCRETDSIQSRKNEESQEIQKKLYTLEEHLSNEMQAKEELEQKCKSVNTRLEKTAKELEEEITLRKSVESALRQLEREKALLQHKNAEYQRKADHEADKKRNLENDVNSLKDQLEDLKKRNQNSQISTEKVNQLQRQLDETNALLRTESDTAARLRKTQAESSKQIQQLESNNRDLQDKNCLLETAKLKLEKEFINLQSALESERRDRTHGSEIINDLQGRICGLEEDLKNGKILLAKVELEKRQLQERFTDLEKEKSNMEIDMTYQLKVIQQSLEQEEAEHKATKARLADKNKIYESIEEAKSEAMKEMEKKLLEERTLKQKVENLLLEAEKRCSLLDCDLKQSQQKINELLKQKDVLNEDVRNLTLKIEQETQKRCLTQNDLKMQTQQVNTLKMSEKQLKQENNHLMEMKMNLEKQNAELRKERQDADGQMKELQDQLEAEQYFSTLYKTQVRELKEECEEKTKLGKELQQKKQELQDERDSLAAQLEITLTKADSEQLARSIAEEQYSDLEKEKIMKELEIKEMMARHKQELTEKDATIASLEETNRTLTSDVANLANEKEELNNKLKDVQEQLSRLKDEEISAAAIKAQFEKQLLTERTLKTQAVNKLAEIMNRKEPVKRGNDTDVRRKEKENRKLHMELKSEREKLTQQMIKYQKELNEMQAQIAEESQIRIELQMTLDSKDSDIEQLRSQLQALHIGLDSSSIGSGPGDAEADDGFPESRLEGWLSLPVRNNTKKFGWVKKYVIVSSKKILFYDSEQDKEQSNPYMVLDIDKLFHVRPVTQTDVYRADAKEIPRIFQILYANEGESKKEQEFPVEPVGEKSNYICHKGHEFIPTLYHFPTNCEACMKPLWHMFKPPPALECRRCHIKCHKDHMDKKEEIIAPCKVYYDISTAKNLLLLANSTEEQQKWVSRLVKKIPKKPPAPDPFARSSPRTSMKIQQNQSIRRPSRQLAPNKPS
Sequence of Mitogen-activated protein kinase 9 (P45984 whole entry, looked up): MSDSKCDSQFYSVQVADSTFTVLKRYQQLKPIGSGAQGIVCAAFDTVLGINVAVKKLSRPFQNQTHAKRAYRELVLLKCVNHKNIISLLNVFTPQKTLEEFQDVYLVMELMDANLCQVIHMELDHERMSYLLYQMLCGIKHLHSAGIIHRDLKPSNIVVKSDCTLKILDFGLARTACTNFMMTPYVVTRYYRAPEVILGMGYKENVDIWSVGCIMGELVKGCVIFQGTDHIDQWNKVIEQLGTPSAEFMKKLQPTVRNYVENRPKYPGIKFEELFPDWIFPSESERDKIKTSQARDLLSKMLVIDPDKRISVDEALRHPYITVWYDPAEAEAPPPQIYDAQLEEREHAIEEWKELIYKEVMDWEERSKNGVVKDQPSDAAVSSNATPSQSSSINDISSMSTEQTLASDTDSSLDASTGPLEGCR
Sequence of Cyclin-dependent kinase 7 (P50613 whole entry): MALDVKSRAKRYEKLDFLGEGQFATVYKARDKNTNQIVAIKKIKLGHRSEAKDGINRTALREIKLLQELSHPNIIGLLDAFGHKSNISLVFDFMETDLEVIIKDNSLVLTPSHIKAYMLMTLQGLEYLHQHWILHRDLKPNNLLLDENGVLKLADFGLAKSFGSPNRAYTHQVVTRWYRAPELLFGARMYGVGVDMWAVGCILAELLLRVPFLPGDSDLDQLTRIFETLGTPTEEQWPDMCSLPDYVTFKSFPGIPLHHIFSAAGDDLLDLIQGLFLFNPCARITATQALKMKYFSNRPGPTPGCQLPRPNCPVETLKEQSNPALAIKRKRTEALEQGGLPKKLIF
Sequence of Tyrosine-protein kinase Fyn (Homo sapiens) (P06241 2-537 limits assumed): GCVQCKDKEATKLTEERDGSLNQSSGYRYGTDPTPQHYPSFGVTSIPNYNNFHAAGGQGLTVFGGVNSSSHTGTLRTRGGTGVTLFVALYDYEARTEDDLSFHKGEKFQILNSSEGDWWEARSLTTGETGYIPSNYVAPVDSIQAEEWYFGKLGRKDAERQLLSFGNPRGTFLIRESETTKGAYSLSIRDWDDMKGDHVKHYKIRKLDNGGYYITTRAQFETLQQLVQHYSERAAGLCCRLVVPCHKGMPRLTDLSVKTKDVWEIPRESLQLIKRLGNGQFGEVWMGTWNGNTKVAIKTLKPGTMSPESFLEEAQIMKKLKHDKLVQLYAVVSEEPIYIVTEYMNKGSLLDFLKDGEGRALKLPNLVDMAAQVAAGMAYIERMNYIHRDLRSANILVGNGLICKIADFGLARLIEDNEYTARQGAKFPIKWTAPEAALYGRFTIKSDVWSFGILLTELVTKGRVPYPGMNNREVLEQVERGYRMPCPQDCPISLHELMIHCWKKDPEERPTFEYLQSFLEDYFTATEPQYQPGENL
Sequence of Fibroblast growth factor receptor 2 (Homo sapiens) (P21802 22-821 limits assumed): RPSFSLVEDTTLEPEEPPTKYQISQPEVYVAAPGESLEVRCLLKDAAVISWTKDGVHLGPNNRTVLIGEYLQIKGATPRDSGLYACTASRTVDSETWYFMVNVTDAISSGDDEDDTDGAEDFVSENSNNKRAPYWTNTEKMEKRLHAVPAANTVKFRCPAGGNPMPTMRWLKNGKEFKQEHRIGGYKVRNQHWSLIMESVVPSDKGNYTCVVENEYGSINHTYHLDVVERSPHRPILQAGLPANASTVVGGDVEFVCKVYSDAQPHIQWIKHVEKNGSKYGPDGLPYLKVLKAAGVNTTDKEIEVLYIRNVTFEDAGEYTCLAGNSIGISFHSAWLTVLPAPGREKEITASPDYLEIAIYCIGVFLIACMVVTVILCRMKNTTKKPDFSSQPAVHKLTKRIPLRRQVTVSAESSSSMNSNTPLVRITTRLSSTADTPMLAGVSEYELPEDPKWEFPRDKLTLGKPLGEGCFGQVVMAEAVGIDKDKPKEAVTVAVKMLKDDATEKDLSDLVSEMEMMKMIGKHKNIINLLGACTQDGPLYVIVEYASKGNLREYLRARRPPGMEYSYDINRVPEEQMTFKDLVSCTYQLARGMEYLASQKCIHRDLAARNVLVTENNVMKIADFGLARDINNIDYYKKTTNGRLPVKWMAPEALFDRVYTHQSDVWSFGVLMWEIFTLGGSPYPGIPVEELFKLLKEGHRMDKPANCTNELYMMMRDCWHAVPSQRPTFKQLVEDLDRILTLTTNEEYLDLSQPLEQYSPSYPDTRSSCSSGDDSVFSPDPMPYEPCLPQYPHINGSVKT
Sequence of Mitogen-activated protein kinase 10 (P53779 whole entry): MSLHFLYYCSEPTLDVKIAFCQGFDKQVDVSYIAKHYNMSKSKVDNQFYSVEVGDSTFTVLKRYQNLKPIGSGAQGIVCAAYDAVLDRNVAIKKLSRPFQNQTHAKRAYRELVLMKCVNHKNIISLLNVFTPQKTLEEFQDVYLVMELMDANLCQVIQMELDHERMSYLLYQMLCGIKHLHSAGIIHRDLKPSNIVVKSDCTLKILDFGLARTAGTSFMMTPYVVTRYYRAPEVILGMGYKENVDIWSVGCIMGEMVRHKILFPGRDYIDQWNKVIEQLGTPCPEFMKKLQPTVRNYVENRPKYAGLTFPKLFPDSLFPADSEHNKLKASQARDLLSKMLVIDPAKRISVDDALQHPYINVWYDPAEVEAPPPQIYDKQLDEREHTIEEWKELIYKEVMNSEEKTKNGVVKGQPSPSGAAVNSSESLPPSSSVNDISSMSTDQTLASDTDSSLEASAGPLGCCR
Sequence of Mu-type opioid receptor (P35372 whole entry): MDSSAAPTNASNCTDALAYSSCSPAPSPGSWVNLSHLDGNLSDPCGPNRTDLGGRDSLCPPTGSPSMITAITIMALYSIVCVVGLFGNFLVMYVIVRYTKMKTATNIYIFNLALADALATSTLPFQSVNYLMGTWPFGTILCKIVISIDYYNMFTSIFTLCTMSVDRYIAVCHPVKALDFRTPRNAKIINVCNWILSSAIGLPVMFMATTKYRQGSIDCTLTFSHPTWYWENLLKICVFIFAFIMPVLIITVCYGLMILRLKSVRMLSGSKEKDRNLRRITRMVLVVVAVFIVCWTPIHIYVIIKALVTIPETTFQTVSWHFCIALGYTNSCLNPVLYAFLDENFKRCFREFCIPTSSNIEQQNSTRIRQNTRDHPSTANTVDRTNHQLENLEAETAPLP

Consider `Cn1cc(-n2cnc3c(NCc4nc5cc(Cl)c(Cl)cc5[nH]4)nc(N4CCOCC4)nc32)cn1`, for which the % of control in [1] was 7.02%.

Turning to `C=CC(=O)Nc1ccc(C(=O)Nc2[nH]nc3c2CN(C(=O)N[C@H](CN(C)C)c2ccccc2)C3(C)C)cc1`, in experiment [2], the % of engagement is -3.5%.

In experiment [3], `Cc1cc([C@@H](C)Nc2ccccc2C(=O)O)c2nc(N3CCOCC3)cc(=O)n2c1` [AZD-6482] came in with a % of control of 63%.

Turning to `CC(C)(O)[C@H](F)CN1Cc2cc(NC(=O)c3cnn4cccnc34)c(N3CCOCC3)cc2C1=O`, in [4], the dTM came to 1.5 K.

As for `CCc1ccccc1C(=O)Nc1n[nH]c2c(C)c(F)c(C3C(C#N)=C(C)N(C)C(C)=C3C#N)cc12` [BAY-3827], the % of inhibition on Mu-type opioid receptor worked out at 30.5%.

Compound `N#Cc1cccc(-c2c[nH]c3ncnc(N4CCOCC4)c23)c1` yielded a % of control in [5] of 81%.

With `CC[C@@H]1[C@H](F)C(=O)N[C@@H]1COc1nccc2cc(C(N)=O)c(OC)cc12` [ZIMLOVISERTIB], the % of inhibition was 12.6% in experiment [6] (at 0.01 µM); -4.3% in experiment [6] (at 0.04 µM); -10.6% in experiment [6] (at 0.2 µM); 18.3% in experiment [6] (at 1 µM); 53.9% in [6] (at 5 µM).

Take `Cc1cnc(Nc2ccc(F)cc2Cl)nc1-c1c[nH]c(C(=O)N[C@H](CO)c2cccc(Cl)c2)c1`: the % of inhibition in experiment [7] was 12%.

For the compound `COc1cc(Nc2nc(C)cc(-c3cnn4nc(OC)ccc34)n2)cc(C(F)(F)F)c1`, the % of control was determined as 97% in experiment [8] and 100% in experiment [9].

For `C=CC(=O)Nc1cc(-n2c(=O)ccc3cnc4ccc(-c5ccc(NS(C)(=O)=O)cc5)cc4c32)ccc1C`, the % of control was determined as 100% in experiment [10] (at 1 µM) and 24% in experiment [10] (at 10 µM).

On to `Cc1ccc(-c2ccc3c(ccc4sc5c(c43)NC[C@@H](C)NC5=O)n2)cn1`, for which the % of inhibition in [11] is -1%.
